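Step 1: Grow cells in 96-well plates. Step 2: Expose to compound for 48 hours at 5 concentrations. Step 3: Interpolate endpoints linearly; if unreached, use highest concentration. At the GI50, growth is halved.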 Activity calls are given as the source filed them. Cut-off read from the data, not from the text of the source: active = GI50 up to about 1.1 µM and inactive = higher.
Key:
Experiment in all cases: inhibition of tumour cell growth, NCI panel, 48 h
DLD-1 = system: DLD-1
DMS-273 = system: DMS-273
HOP-18 = system: HOP-18
LXFL 529 = system: LXFL 529
M19-MEL = system: M19-MEL
SNB-78 = system: SNB-78
XF498 = system: XF498
DMS-114 = system: DMS-114
RXF 631 = system: RXF 631

Compound | GI50 (DLD-1) | GI50 (DMS-273) | GI50 (HOP-18) | GI50 (LXFL 529) | GI50 (M19-MEL) | GI50 (SNB-78) | GI50 (XF498) | GI50 (DMS-114) | GI50 (RXF 631)
COc1ccc2c(c1)CCc1c-2nc2cc3c(cc2c1O)OCO3 | > 100 µM (inactive) | > 100 µM (inactive) | > 100 µM (inactive) | > 100 µM (inactive) | > 100 µM (inactive) | > 100 µM (inactive) | > 100 µM (inactive) | – | –
CN(C)CCC(=O)N1C/C(=C/c2ccccc2)C(=O)/C(=C\c2ccccc2)C1 | 0.931 µM (active) | 1.55 µM (inactive) | 4.46 µM (inactive) | 1.92 µM (inactive) | 0.834 µM (active) | 3 µM (inactive) | 2.5 µM (inactive) | 1.41 µM (inactive) | 2.29 µM (inactive)
COC(=O)CSc1nnc(-c2ccc(O)c([N+](=O)[O-])c2)[nH]1 | > 100 µM (inactive) | > 100 µM (inactive) | – | > 100 µM (inactive) | – | – | > 100 µM (inactive) | – | > 100 µM (inactive)
CNS(=O)(=O)NNS(=O)(=O)c1ccc(Br)cc1 | > 100 µM (inactive) | > 100 µM (inactive) | 2.64 µM (inactive) | > 100 µM (inactive) | > 100 µM (inactive) | > 100 µM (inactive) | > 100 µM (inactive) | > 100 µM (inactive) | > 100 µM (inactive)
O=C(NC12CC3CC(CC(C3)C1)C2)C(=O)c1c[nH]c2ccc(Br)cc12 | 13.4 µM (inactive) | 4.54 µM (inactive) | 19.1 µM (inactive) | 15.5 µM (inactive) | – | 35.7 µM (inactive) | – | 65.9 µM (inactive) | –
COc1cc2c(c(OC)c1OC)-c1ccc(OC)c(=O)cc1C(NC(=O)c1ccc(N=[N+]=[N-])cc1)CC2 (centres undefined) | 0.0413 µM (active) | 0.0244 µM (active) | > 84.9 µM (inactive) | 0.0372 µM (active) | 0.0581 µM (active) | 0.03 µM (active) | – | 0.0257 µM (active) | –
COc1cc2c(cc1OC)C(C(=O)c1cccc(OC)c1OC)C(=O)N(C)CC2 (centres undefined) | > 100 µM (inactive) | > 100 µM (inactive) | > 100 µM (inactive) | > 100 µM (inactive) | > 100 µM (inactive) | – | 63.4 µM (inactive) | 56.5 µM (inactive) | > 100 µM (inactive)
C/C(=C\CNc1ncnc2c1ncn2C1CCCCO1)COP(=O)(O)O (centres undefined) | > 100 µM (inactive) | > 100 µM (inactive) | > 100 µM (inactive) | > 100 µM (inactive) | > 100 µM (inactive) | > 100 µM (inactive) | > 100 µM (inactive) | > 100 µM (inactive) | > 100 µM (inactive)
O=C(NC12CC3CCC1CC(C3)C2)[C@@H]1CCCN1C(=O)OCc1ccccc1 (some centres undefined) | 56.9 µM (inactive) | 49.8 µM (inactive) | > 100 µM (inactive) | 30.3 µM (inactive) | 83.6 µM (inactive) | 49.9 µM (inactive) | 19.2 µM (inactive) | 50.4 µM (inactive) | –
CC[C@@]1(OC(=O)CN(C)C)C(=O)OCc2c1cc1n(c2=O)Cc2cc3ccccc3nc2-1 | 0.323 µM (active) | 0.01 µM (active) | 0.312 µM (active) | 1.29 µM (inactive) | 0.114 µM (active) | 7.67 µM (inactive) | 0.354 µM (active) | 0.0259 µM (active) | –
COc1ccc(OCC(=O)O)c2c1CCCC2=O | > 100 µM (inactive) | > 100 µM (inactive) | – | > 100 µM (inactive) | > 100 µM (inactive) | > 100 µM (inactive) | 3.52 µM (inactive) | > 100 µM (inactive) | > 100 µM (inactive)
COC(=O)C12C3C4C5C3(C#N)C1C5(C(=O)OC)C42C(=O)N(C(C)C)C(C)C (centres undefined) | > 50.2 µM (inactive) | > 42.5 µM (inactive) | > 100 µM (inactive) | > 92.9 µM (inactive) | > 100 µM (inactive) | > 100 µM (inactive) | > 63.7 µM (inactive) | > 100 µM (inactive) | > 95.5 µM (inactive)
CSc1nc(NC2OC(COC(C)=O)C(OC(C)=O)C(OC(C)=O)C2OC(C)=O)c(-c2csc(N)n2)c(=O)n1C (centres undefined) | 44.8 µM (inactive) | – | 16.6 µM (inactive) | 31.7 µM (inactive) | 47.6 µM (inactive) | 22.4 µM (inactive) | – | 34.8 µM (inactive) | –
CN(C)C(=S)/N=c1\ss/c(=N\C(=S)N(C)C)n1-c1ccc(Cl)c(Cl)c1 | – | > 100 µM (inactive) | – | – | > 100 µM (inactive) | 67.1 µM (inactive) | – | > 100 µM (inactive) | –
COC(=O)C(=O)C(C#N)c1cccc2ccccc12 (centres undefined) | > 100 µM (inactive) | > 100 µM (inactive) | > 100 µM (inactive) | > 100 µM (inactive) | > 100 µM (inactive) | > 100 µM (inactive) | > 100 µM (inactive) | > 100 µM (inactive) | –
COc1cc2c(c(OC)c1)C1(CC(CC#N)C2)SCCS1 (centres undefined) | > 100 µM (inactive) | > 100 µM (inactive) | > 100 µM (inactive) | > 100 µM (inactive) | > 100 µM (inactive) | > 100 µM (inactive) | – | > 100 µM (inactive) | > 100 µM (inactive)
CC(=O)NC(Cc1ccccc1)C(=S)N1CCCC1 (centres undefined) | > 100 µM (inactive) | > 100 µM (inactive) | 15.3 µM (inactive) | > 100 µM (inactive) | > 100 µM (inactive) | > 100 µM (inactive) | > 100 µM (inactive) | > 100 µM (inactive) | > 100 µM (inactive)
CN(C)[C@@H]1C(O)=C(C(=O)NCNc2nc3[nH]nnc3c(=O)[nH]2)C(=O)[C@@]2(O)C(O)=C3C(=O)c4c(O)cccc4[C@@](C)(O)[C@H]3C[C@@H]12 | 29.7 µM (inactive) | 1.29 µM (inactive) | 2.19 µM (inactive) | 53.1 µM (inactive) | 2.24 µM (inactive) | 1.81 µM (inactive) | 1.26 µM (inactive) | 1.52 µM (inactive) | 0.836 µM (active)
CC(O)C(N/C=C1/N=C(c2ccccc2)OC1=O)C(=O)O (centres undefined) | > 100 µM (inactive) | > 100 µM (inactive) | > 100 µM (inactive) | > 100 µM (inactive) | > 100 µM (inactive) | > 100 µM (inactive) | > 100 µM (inactive) | > 100 µM (inactive) | > 100 µM (inactive)
O=C(c1ccccn1)c1nc(-c2ccc(Cl)c(Cl)c2)nc2ccc(Cl)cc12 | 99.3 µM (inactive) | 32 µM (inactive) | – | 46.6 µM (inactive) | 81.1 µM (inactive) | > 100 µM (inactive) | 20.8 µM (inactive) | 64.6 µM (inactive) | –
ONc1ncnc2[nH]cnc12 | > 100 µM (inactive) | > 100 µM (inactive) | – | > 100 µM (inactive) | > 100 µM (inactive) | – | > 100 µM (inactive) | > 100 µM (inactive) | –
Cc1c2ccncc2c(C)c2c1[nH]c1ccc(Cl)cc12 | 2.15 µM (inactive) | 1.59 µM (inactive) | 2.52 µM (inactive) | 1.84 µM (inactive) | 2.56 µM (inactive) | 3.94 µM (inactive) | 4.31 µM (inactive) | 2.07 µM (inactive) | –
COc1ccc(C2CC(=O)c3c(O)cc(O)cc3O2)cc1O (centres undefined) | > 100 µM (inactive) | > 100 µM (inactive) | – | > 100 µM (inactive) | > 100 µM (inactive) | > 100 µM (inactive) | > 100 µM (inactive) | > 100 µM (inactive) | > 100 µM (inactive)

From ChEMBL document CHEMBL1201862, “PubChem BioAssay data set” (2004)
